8 compounds from ChEMBL document CHEMBL1152371, “Effect of varying chain length between P(1) and P(1') position of tripeptidomimics on activity of angiotensin-converting enzyme inhibitors” (Bioorg Med Chem Lett, 2009) can be followed below.

This assay concerns the target T1, Angiotensin-converting enzyme (Oryctolagus cuniculus) (UniProt P12822).
T1 sequence (whole entry): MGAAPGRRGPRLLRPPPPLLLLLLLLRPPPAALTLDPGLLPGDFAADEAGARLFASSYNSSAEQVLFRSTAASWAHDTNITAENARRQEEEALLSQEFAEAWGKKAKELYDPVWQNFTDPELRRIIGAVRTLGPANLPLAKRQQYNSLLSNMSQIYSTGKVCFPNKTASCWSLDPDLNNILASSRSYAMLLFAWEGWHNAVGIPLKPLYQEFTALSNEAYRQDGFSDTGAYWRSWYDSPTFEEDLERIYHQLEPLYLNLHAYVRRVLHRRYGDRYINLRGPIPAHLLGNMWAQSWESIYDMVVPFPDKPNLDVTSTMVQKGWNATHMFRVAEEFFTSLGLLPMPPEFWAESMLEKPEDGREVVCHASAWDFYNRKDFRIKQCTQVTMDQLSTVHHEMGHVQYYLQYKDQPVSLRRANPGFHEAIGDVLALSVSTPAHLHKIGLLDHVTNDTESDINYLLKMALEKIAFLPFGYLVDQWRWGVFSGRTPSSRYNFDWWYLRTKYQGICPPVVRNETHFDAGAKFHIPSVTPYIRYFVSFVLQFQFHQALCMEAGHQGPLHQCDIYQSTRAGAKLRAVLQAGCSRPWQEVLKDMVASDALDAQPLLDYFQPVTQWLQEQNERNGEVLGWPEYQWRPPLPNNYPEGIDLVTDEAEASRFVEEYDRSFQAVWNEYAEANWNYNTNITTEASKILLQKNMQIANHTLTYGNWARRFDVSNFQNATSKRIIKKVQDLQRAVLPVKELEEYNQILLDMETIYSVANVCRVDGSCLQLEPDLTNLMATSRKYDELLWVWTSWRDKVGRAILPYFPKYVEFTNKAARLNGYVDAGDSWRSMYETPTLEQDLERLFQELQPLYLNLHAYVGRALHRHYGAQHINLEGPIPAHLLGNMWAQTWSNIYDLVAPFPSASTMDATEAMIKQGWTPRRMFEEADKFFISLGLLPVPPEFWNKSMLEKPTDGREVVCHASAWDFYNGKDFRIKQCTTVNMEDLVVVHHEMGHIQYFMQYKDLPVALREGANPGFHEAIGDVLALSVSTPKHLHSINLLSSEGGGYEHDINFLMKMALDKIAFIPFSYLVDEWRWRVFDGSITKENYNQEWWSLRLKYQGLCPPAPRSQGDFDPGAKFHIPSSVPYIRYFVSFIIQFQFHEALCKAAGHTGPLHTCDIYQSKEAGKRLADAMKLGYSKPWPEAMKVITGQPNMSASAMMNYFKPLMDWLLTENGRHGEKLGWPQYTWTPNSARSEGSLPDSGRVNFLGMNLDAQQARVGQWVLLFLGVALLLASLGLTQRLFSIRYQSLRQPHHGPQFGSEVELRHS
Kind of assay: Inhibition of rabbit lung ACE activity relative to control. More on the design: concentration or dose not given beside the values. Conditions: concentration not given here.
`NCCC[C@H](NC(=O)CCCc1ccsc1)C(=O)N1CCC[C@H]1C(=O)O` had an inhibition of 37.2%.
With `NCCC[C@H](NC(=O)Cc1ccsc1)C(=O)N1CCC[C@H]1C(=O)O` the figure was 35.6%; with `NCCC[C@H](NC(=O)c1c[nH]c2ccccc12)C(=O)N1CCC[C@H]1C(=O)O`, 27.7%.
With `NCCC[C@H](NC(=O)c1ccsc1)C(=O)N1CCC[C@H]1C(=O)O` the figure was 23.7%; with `NCCC[C@H](NC(=O)CCc1ccsc1)C(=O)N1CCC[C@H]1C(=O)O`, 72.7%; with `NCCC[C@H](NC(=O)Cc1c[nH]c2ccccc12)C(=O)N1CCC[C@H]1C(=O)O`, 38.5%.
For `NCCC[C@H](NC(=O)CCc1c[nH]c2ccccc12)C(=O)N1CCC[C@H]1C(=O)O`, the inhibition worked out at 59.7%.
With `NCCC[C@H](NC(=O)CCCc1c[nH]c2ccccc12)C(=O)N1CCC[C@H]1C(=O)O` the figure was 33.8%.

By inhibition is commonly meant how much of the control response was suppressed.
